Laboratory results published in patent US10481149B2.
Where two headings read alike, the source gives them in different places.

Assays:
BSEP [1] = target: T1, BSEP (Macaca fascicularis, UniProt D2CFL3); test: in vitro; conditions: monkey, hepatocytes in suspension, probe glycocholate
BSEP [2] = target: T1, BSEP; test: in vitro; conditions: monkey, hepatocytes in suspension, probe taurocholate
BSEP [3] = target: T2, BSEP (Canis lupus familiaris, UniProt B8K1W2); test: Inhibition of BSEP activity (transport of taurocholate) in dog hepatocytes
T2 sequence (B8K1W2 1-1325): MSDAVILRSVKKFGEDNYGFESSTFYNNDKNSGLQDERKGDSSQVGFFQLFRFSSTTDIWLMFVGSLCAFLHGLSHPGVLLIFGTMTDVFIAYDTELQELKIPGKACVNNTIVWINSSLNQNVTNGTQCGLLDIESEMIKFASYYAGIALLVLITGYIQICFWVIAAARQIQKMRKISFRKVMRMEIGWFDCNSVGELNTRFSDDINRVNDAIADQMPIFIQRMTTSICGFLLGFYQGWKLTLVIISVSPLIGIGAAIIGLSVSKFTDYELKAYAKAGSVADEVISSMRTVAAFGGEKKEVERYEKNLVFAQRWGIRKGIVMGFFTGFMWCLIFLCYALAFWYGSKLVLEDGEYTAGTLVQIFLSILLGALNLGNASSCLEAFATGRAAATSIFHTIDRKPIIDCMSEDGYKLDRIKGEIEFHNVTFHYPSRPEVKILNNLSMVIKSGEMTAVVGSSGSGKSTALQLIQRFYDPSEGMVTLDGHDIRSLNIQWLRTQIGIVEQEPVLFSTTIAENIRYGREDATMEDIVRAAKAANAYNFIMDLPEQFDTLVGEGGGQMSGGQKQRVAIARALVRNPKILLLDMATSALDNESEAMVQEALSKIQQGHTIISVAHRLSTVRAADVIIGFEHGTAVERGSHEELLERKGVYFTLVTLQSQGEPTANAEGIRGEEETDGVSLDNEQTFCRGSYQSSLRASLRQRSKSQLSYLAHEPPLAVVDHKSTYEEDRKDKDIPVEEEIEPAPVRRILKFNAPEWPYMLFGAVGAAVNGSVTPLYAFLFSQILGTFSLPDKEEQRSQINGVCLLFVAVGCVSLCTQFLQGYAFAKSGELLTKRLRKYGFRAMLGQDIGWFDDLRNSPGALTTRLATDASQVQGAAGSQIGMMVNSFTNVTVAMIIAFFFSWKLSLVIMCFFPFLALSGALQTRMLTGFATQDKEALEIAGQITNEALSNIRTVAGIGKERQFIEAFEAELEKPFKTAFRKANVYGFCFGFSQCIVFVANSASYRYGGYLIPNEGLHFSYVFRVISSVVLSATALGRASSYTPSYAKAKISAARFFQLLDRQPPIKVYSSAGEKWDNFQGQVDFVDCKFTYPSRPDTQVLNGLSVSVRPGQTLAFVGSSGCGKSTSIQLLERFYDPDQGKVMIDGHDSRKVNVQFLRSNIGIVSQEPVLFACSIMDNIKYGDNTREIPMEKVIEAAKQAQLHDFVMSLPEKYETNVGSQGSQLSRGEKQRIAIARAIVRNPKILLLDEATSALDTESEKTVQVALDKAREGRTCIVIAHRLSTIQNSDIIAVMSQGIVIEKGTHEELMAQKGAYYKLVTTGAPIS

BSEP [4] = target: T3, BSEP (Rattus norvegicus, UniProt O70127); test: Inhibition of BSEP activity (transport of glycocholate) in rat hepatocytes
T3 sequence (O70127 1-1321): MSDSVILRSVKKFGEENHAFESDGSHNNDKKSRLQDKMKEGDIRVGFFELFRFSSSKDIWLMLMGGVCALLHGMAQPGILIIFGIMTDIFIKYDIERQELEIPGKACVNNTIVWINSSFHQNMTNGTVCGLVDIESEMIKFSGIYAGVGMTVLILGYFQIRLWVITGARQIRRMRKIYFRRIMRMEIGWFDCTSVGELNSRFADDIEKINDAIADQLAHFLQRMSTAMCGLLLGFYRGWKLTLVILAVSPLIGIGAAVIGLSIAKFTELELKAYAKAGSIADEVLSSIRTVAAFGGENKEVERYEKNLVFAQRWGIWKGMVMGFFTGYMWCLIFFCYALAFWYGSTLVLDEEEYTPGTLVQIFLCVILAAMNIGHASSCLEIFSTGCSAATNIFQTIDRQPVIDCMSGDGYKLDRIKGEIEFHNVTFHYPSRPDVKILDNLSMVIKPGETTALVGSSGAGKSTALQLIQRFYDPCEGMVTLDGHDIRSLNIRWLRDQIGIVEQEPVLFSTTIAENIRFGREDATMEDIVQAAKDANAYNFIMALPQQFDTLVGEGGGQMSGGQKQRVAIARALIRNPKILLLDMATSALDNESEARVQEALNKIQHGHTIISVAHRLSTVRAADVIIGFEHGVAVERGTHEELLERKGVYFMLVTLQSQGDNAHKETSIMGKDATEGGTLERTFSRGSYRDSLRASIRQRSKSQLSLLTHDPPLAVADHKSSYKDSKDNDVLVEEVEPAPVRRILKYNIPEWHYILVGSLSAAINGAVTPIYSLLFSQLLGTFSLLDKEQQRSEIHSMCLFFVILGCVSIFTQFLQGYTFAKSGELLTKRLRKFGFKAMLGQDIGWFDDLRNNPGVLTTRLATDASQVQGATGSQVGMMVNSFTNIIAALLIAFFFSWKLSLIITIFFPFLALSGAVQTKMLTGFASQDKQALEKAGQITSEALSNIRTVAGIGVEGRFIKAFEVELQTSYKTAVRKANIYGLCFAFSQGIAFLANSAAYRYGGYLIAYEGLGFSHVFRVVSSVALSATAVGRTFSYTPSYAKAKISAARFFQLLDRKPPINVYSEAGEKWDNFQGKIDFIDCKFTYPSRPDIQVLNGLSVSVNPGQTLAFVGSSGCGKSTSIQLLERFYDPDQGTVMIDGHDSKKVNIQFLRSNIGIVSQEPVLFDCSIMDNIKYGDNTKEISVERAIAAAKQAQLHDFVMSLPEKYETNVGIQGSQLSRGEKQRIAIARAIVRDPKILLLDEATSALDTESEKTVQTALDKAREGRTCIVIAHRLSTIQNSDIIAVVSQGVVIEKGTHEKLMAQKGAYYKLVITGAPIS

BSEP [5] = target: BSEP (Homo sapiens, UniProt O95342); test: in vitro
[6] = hepatocytes in suspension, probe taurocholate
[7] = hepatocytes in suspension, probe glycocholate

Sequence of BSEP (Homo sapiens, UniProt O95342) (O95342 whole entry): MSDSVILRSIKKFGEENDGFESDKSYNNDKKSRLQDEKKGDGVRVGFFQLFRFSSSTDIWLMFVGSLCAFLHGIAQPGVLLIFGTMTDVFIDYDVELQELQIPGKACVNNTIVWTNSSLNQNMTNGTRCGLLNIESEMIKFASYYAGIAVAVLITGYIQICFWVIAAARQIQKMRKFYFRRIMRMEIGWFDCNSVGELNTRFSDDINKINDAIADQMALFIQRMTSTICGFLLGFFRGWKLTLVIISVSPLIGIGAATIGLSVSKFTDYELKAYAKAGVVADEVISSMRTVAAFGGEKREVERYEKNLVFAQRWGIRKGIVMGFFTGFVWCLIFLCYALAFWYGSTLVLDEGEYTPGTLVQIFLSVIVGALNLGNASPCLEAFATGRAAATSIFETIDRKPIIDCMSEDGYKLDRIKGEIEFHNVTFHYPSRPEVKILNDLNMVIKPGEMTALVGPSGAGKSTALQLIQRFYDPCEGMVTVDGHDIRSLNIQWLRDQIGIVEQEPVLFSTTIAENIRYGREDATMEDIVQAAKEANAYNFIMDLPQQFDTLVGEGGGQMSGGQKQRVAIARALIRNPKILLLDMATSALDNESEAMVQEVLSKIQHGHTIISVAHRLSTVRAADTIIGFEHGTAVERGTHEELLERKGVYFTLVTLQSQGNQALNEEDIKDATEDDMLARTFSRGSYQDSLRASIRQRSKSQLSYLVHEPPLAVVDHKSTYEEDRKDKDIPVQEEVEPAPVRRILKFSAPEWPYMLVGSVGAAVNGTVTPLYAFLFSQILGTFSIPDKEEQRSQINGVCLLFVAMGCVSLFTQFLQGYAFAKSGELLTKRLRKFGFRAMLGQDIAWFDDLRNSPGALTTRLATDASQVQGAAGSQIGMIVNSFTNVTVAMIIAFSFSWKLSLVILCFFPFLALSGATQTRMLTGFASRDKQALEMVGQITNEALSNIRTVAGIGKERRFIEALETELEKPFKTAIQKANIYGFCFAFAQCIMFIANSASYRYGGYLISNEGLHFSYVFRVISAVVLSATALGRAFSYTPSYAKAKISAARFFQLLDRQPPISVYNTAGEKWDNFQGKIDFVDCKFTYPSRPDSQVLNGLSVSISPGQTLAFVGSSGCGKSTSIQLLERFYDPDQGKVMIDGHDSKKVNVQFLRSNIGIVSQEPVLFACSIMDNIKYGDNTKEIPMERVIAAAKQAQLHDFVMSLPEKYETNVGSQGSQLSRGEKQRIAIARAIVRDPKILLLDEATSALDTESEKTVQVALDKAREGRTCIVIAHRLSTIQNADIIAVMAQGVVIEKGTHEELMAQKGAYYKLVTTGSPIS
T1 sequence (D2CFL3 1-1323): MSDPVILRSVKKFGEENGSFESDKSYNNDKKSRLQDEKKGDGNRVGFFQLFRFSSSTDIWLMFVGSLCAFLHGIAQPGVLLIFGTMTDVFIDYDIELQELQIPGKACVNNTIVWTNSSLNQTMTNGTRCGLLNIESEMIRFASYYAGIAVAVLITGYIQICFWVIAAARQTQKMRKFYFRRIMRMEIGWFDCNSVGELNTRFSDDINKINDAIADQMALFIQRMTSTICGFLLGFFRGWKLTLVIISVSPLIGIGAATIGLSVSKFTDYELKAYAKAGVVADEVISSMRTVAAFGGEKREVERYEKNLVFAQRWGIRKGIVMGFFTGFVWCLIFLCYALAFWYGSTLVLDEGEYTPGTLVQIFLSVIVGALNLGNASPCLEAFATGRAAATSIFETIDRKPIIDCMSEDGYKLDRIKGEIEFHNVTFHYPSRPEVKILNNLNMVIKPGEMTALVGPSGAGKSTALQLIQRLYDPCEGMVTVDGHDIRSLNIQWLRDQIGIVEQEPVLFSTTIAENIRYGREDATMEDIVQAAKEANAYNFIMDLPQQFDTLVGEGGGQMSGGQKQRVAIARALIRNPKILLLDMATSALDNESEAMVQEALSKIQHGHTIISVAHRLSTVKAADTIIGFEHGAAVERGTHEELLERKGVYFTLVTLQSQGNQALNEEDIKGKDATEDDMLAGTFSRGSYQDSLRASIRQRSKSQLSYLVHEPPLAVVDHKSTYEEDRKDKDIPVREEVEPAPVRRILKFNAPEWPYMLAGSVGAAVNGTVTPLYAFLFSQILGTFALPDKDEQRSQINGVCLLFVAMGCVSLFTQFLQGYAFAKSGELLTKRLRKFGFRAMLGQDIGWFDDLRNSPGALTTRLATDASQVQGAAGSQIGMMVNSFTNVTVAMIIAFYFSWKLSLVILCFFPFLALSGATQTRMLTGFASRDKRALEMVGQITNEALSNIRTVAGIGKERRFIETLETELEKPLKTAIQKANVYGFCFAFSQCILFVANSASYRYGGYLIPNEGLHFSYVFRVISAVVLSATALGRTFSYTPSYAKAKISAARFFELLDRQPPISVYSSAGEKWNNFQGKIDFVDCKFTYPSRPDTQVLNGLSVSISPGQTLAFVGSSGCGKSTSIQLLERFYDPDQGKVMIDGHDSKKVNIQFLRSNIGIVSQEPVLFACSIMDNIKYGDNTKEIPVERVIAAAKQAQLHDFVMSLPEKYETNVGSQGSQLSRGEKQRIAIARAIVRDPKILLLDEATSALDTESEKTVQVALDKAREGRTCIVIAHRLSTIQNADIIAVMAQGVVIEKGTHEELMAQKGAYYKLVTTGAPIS

| Structure (SMILES) | inhibition at 1 h, 1 μM (BSEP [1]) [%] | inhibition at 1 h, 10 μM (BSEP [1]) [%] | inhibition at 1 h, 1 μM (BSEP [2]) [%] | inhibition at 1 h, 10 μM (BSEP [2]) [%] | inhibition at 1 h, 1 μM (BSEP [3]) [%] | inhibition at 1 h, 10 μM (BSEP [3]) [%] | inhibition at 1 h, 1 μM (BSEP [4]) [%] | inhibition at 1 h, 10 μM (BSEP [4]) [%] | inhibition at 1 h, 1 μM (BSEP [5]) [%] | inhibition at 1 h, 10 μM (BSEP [5]) [%] | inhibition at 1 h, 1 μM (BSEP [3]; [6]) [%] | inhibition at 1 h, 10 μM (BSEP [3]; [6]) [%] | inhibition at 1 h, 1 μM (BSEP [4]; [7]) [%] | inhibition at 1 h, 10 μM (BSEP [4]; [7]) [%] | inhibition at 1 h, 1 μM (BSEP [5]; [7]) [%] | inhibition at 1 h, 10 μM (BSEP [5]; [7]) [%] |
| --- | --- | --- | --- | --- | --- | --- | --- | --- | --- | --- | --- | --- | --- | --- | --- | --- |
| S=P(N1CC1)(N1CC1)N1CC1 [Thiotepa, thiotepa] | < 50 | < 50 | < 50 | < 50 | < 50 | < 50 | < 50 | < 50 | < 50 | < 50 | – | – | – | – | – | – |
| COC(=O)N[C@H](C(=O)N[C@@H](Cc1ccccc1)[C@@H](O)CN(Cc1ccc(-c2ccccn2)cc1)NC(=O)[C@@H](NC(=O)OC)C(C)(C)C)C(C)(C)C [Atazanavir, atazanavir] | < 50 | > 50 | < 50 | > 50 | – | – | – | – | – | – | < 50 | > 50 | > 50 | > 50 | < 50 | > 50 |
| O=c1c(O)c(-c2ccc(O)c(O)c2)oc2cc(O)cc(O)c12 [Quercetin, quercetin] | < 50 | < 50 | < 50 | < 50 | – | – | – | – | – | – | < 50 | > 50 | < 50 | < 50 | < 50 | < 50 |
| OC(Cn1cncn1)(Cn1cncn1)c1ccc(F)cc1F [Fluconazole, fluconazole] | < 50 | < 50 | < 50 | < 50 | – | – | – | – | – | – | < 50 | < 50 | < 50 | < 50 | < 50 | < 50 |
| Cc1c(O)cccc1C(=O)N[C@@H](CSc1ccccc1)[C@H](O)CN1C[C@H]2CCCC[C@H]2C[C@H]1C(=O)NC(C)(C)C [Nelfinavir, nelfinavir] | < 50 | > 50 | < 50 | > 50 | – | – | – | – | – | – | < 50 | > 50 | < 50 | > 50 | < 50 | > 50 |
| C[C@@H](Oc1cc(-c2cnn(C3CCNCC3)c2)cnc1N)c1c(Cl)ccc(F)c1Cl [Crizotinib, crizotinib] | < 50 | < 50 | < 50 | < 50 | – | – | – | – | – | – | < 50 | > 50 | < 50 | > 50 | < 50 | > 50 |
| C=C[C@H]1C[N@@]2CC[C@H]1C[C@@H]2[C@@H](O)c1ccnc2ccc(OC)cc12 [Quinidine, quinidine] | < 50 | < 50 | < 50 | < 50 | – | – | – | – | – | – | < 50 | < 50 | < 50 | < 50 | < 50 | < 50 |
| CC[C@]1(O)C[C@@H]2CN(CCc3c([nH]c4ccccc34)[C@@](C(=O)OC)(c3cc4c(cc3OC)N(C)[C@H]3[C@@](O)(C(=O)OC)[C@H](OC(C)=O)[C@]5(CC)C=CCN6CC[C@]43[C@@H]65)C2)C1 [Vinblastine, vinblastine] | < 50 | < 50 | < 50 | < 50 | – | – | – | – | – | – | < 50 | < 50 | < 50 | > 50 | < 50 | > 50 |
| CC(=O)N1CCN(c2ccc(OCC3COC(Cn4ccnc4)(c4ccc(Cl)cc4Cl)O3)cc2)CC1 (centres unmarked) [Ketoconazole, ketoconazole] | < 50 | > 50 | < 50 | > 50 | – | – | – | – | – | – | < 50 | < 50 | < 50 | > 50 | < 50 | < 50 |
| Cc1c(C)c2c(c(C)c1O)CCC(C)(COc1ccc(CC3SC(=O)NC3=O)cc1)O2 (centres unmarked) [Troglitazone, troglitazone] | > 50 | > 50 | < 50 | > 50 | – | – | – | – | – | – | < 50 | > 50 | > 50 | > 50 | > 50 | > 50 |
| CC(C)NCC(O)COc1cccc2ccccc12 (centres unmarked) [Propranolol, propranolol] | < 50 | < 50 | < 50 | < 50 | – | – | – | – | – | – | < 50 | < 50 | < 50 | < 50 | < 50 | < 50 |
